Reference: patent US10179770B2, “Quinolines derivatives as novel anticancer agents” (GENOSCIENCE PHARMA, priority 2013, dated 2019)

Tests used:
Assay in all cases: NCI-60 screen (SRB)
Assay type in all cases: cell-based
[1] = system: U251; conditions: U251 (CNS)
Experimental: (§1) The human tumor cell lines of the cancer screening panel are grown in RPMI 1640 medium containing 5% fetal bovine serum and 2 mM L-glutamine. For a typical screening experiment, cells are inoculated into 96 well microtiter plates in 100 μL at plating densities ranging from 5,000 to 40,000 cells/well depending on the doubling time of individual cell lines. After cell inoculation, the microtiter plates are incubated at 37° C., 5% CO2, 95% air and 100% relative humidity for 24 h prior to addition of experimental drugs.
(§2) After 24 h, two plates of each cell line are fixed in situ with TCA, to represent a measurement of the cell population for each cell line at the time of drug addition (Tz). Experimental drug is solubilized in dimethyl sulfoxide at 400-fold the desired final maximum test concentration and stored frozen prior to use. At the time of drug addition, an aliquot of frozen concentrate is thawed and diluted to twice the desired final maximum test concentration with complete medium containing 50 μg/ml gentamicin. Additional four, 10-fold or ½ log serial dilutions are made to provide a total of five drug concentrations plus control. Aliquots of 100 μl of these different drug dilutions are added to the appropriate microtiter wells already containing 100 μl of medium, resulting in the required final drug concentrations.
(§3) Following drug addition, the plates are incubated for an additional 48 h at 37° C., 5% CO2, 95% air, and 100% relative humidity. For adherent cells, the assay is terminated by the addition of cold TCA. Cells are fixed in situ by the gentle addition of 50 μl of cold 50% (w/v) TCA (final concentration, 10% TCA) and incubated for 60 minutes at 4° C. The supernatant is discarded, and the plates are washed five times with tap water and air dried. Sulforhodamine B (SRB) solution (100 μl) at 0.4% (w/v) in 1% acetic acid is added to each well, and plates are incubated for 10 minutes at room temperature. After staining, unbound dye is removed by washing five times with 1% acetic acid and the plates are air dried. Bound stain is subsequently solubilized with 10 mM trizma base, and the absorbance is read on an automated plate reader at a wavelength of 515 nm. For suspension cells, the methodology is the same except that the assay is terminated by fixing settled cells at the bottom of the wells by gently adding 50 μl of 80% TCA (final concentration, 16% TCA). Using the seven absorbance measurements [time zero, (Tz), control growth, (C), and test growth in the presence of drug at the five concentration levels (Ti)], the percentage growth is calculated at each of the drug concentrations levels.
(§4) Percentage growth inhibition is calculated as: [(Ti−Tz)/(C−Tz)]×100 for concentrations for which Ti>/=Tz (1) [(Ti−Tz)/Tz]×100 for concentrations for which Ti<Tz (2)
(§5) Growth inhibition of 50% (GI50) is calculated from [(Ti−Tz)/(C−Tz)]×100=50 (3)
(§6) which is the drug concentration resulting in a 50% reduction in the net protein increase (as measured by SRB staining) in control cells during the drug incubation.
(§7) The drug concentration resulting in total growth inhibition (TGI) is calculated from Ti=Tz (4)
(§8) The LC50 (concentration of drug resulting in a 50% reduction in the measured protein at the end of the drug treatment as compared to that at the beginning) indicating a net loss of cells following treatment is calculated from [(Ti−Tz)/Tz]×100=−50 (5)
(§9) Values are calculated for each of these three parameters if the level of activity is reached; however, if the effect is not reached or is exceeded, the value for that parameter is expressed as greater or less than the maximum or minimum concentration tested.

[2] = system: SNB-19; conditions: SNB-19 (CNS)
Experimental: as §1, §2, §3, §4, §5, §6, §7, §8, §9

[3] = system: NCI-H460; conditions: NCI-H460 (Non-Small Cell Lung)
Experimental: as §1, §2, §3, §4, §5, §6, §7, §8, §9

[4] = system: CCRF-CEM; conditions: CCRF-CEM (Leukemia)
Experimental: as §1, §2, §3, §4, §5, §6, §7, §8, §9

[5] = system: SK-OV3; conditions: SK-OV3 (Ovarian)
Experimental: as §1, §2, §3, §4, §5, §6, §7, §8, §9

[6] = system: SW-620; conditions: SW-620 (Colon)
Experimental: as §1, §2, §3, §4, §5, §6, §7, §8, §9

[7] = system: MALME-3M; conditions: MALME-3M (Melanoma)
Experimental: as §1, §2, §3, §4, §5, §6, §7, §8, §9

[8] = system: SK-MEL-5; conditions: SK-MEL-5 (Melanoma)
Experimental: as §1, §2, §3, §4, §5, §6, §7, §8, §9

[9] = system: CAKI-1; conditions: CAKI-1 (Renal)
Experimental: as §1, §2, §3, §4, §5, §6, §7, §8, §9

[10] = system: A498; conditions: A498 (Renal)
Experimental: as §1, §2, §3, §4, §5, §6, §7, §8, §9

[11] = system: HCT-15; conditions: HCT-15 (Colon)
Experimental: as §1, §2, §3, §4, §5, §6, §7, §8, §9

[12] = system: NCI-H23; conditions: NCI-H23 (Non-Small Cell Lung)
Experimental: as §1, §2, §3, §4, §5, §6, §7, §8, §9

[13] = system: NCI-H226; conditions: NCI-H226 (Non-Small Cell Lung)
Experimental: as §1, §2, §3, §4, §5, §6, §7, §8, §9

[14] = system: SF-539; conditions: SF-539 (CNS)
Experimental: as §1, §2, §3, §4, §5, §6, §7, §8, §9

[15] = system: UACC-257; conditions: UACC-257 (Melanoma)
Experimental: as §1, §2, §3, §4, §5, §6, §7, §8, §9

[16] = system: SR; conditions: SR (Leukemia)
Experimental: as §1, §2, §3, §4, §5, §6, §7, §8, §9

[17] = system: IGROVI; conditions: IGROVI (Ovarian)
Experimental: as §1, §2, §3, §4, §5, §6, §7, §8, §9

[18] = Homo sapiens, read-out: LC50 (the source's name)

## CC(C)(C)NC1CCN(c2cc(-c3ccc(Cl)cc3)nc3ccccc23)CC1.Cl.Cl [XII-4, 2-(4-chloro-phenyl)-4-(4-N-tert-butylamino-piperidin-1-yl)quinoline dihydrochloride]
[1]
  Growth percent at 10 μM: ++ (cell growth 40 > % < 60)
[2]
  Growth percent at 10 μM: − (cell growth % > 80)
[3]
  Growth percent at 10 μM: ++ (cell growth 40 > % < 60)
[4]
  Growth percent at 10 μM: +++ (cell growth 20 > % < 40)
[5]
  Growth percent at 10 μM: − (cell growth % > 80)
[6]
  Growth percent at 10 μM: ++++ (cell growth 0 > % < 20)
[7]
  Growth percent at 10 μM: ××× (cell growth −40 < % > −60)
[8]
  Growth percent at 10 μM: ++++ (cell growth 0 > % < 20)
[9]
  Growth percent at 10 μM: +++ (cell growth 20 > % < 40)
[10]
  Growth percent at 10 μM: +++ (cell growth 20 > % < 40)
[11]
  Growth percent at 10 μM: ++++ (cell growth 0 > % < 20)
[12]
  Growth percent at 10 μM: − (cell growth % > 80)
[13]
  Growth percent at 10 μM: − (cell growth % > 80)
[14]
  Growth percent at 10 μM: ++ (cell growth 40 > % < 60)
[15]
  Growth percent at 10 μM: ××× (cell growth −40 < % > −60)
[16]
  Growth percent at 10 μM: ++++ (cell growth 0 > % < 20)
[17]
  Growth percent at 10 μM: ++ (cell growth 40 > % < 60)

## CCN(CC)C1CCN(C(C)c2cc(-c3ccccc3)nc3ccccc23)CC1.Cl.Cl (stereo not shown) [XIX-3, 2-phenyl-4-{1-[4-(N,N-diethylamino)piperidin-1-yl]-eth-1-yl}quinoline dihydrochloride]
[1]; Homo sapiens, U-251
  GI50: 6 µM
[1]; Homo sapiens, U-251, read-out: LC50 (the source's name)
  CC50: 49 µM
[1]
  TGI: 20 µM
  Growth percent at 10 μM: +++ (cell growth 20 > % < 40)
[2]; Homo sapiens
  GI50: 13 µM
[2]; [18]
  CC50: 59 µM
[2]
  TGI: 28 µM
  Growth percent at 10 μM: − (cell growth % > 80)
[3]; Homo sapiens
  GI50: 7 µM
[3]; [18]
  CC50: 54 µM
[3]
  TGI: 22 µM
  Growth percent at 10 μM: + (cell growth 60 > % < 80)
[4]
  TGI: 25 µM
  Growth percent at 10 μM: ++ (cell growth 40 > % < 60)
[4]; Homo sapiens
  GI50: 9 µM
[4]; [18]
  CC50: 62 µM
[5]; Homo sapiens, SK-OV-3
  GI50: 17 µM
  LC50 (concentration killing 50% of cells): 59 µM
[5]
  TGI: 31 µM
  Growth percent at 10 μM: − (cell growth % > 80)
[6]; Homo sapiens
  GI50: 4 µM
[6]; [18]
  CC50: 45 µM
[6]
  TGI: 17 µM
  Growth percent at 10 μM: ++ (cell growth 40 > % < 60)
[7]; Homo sapiens
  GI50: 2 µM
[7]; [18]
  CC50: 7 µM
[7]
  TGI: 4 µM
  Growth percent at 10 μM: ×× (cell growth −20 > % < −40)
[8]; Homo sapiens
  GI50: 2 µM
[8]; [18]
  CC50: 6 µM
[8]
  TGI: 3 µM
  Growth percent at 10 μM: ××××× (cell growth % < −80)
[9]
  TGI: 28 µM
  Growth percent at 10 μM: + (cell growth 60 > % < 80)
[9]; Homo sapiens
  GI50: 13 µM
[9]; [18]
  CC50: 58 µM
[10]
  TGI: 20 µM
  Growth percent at 10 μM: ++ (cell growth 40 > % < 60)
[10]; Homo sapiens
  GI50: 5 µM
  LC50: 54 µM
[11]
  TGI: 14 µM
  Growth percent at 10 μM: ++++ (cell growth % < 20)
[11]; Homo sapiens
  GI50: 3 µM
[11]; [18]
  CC50: 47 µM
[12]; Homo sapiens
  GI50: > 100 µM
[12]; [18]
  CC50: > 100 µM
[12]
  TGI: >100 µM
  Growth percent at 10 μM: − (cell growth % > 80)
[13]; Homo sapiens
  GI50: 19 µM
[13]; [18]
  CC50: 74 µM
[13]
  TGI: 38 µM
  Growth percent at 10 μM: − (cell growth % > 80)
[14]; Homo sapiens
  GI50: 11 µM
[14]; [18]
  CC50: 50 µM
[14]
  TGI: 23 µM
  Growth percent at 10 μM: ++ (cell growth 40 > % < 60)
[15]; Homo sapiens
  GI50: 2 µM
[15]; [18]
  CC50: 8 µM
[15]
  TGI: 4 µM
  Growth percent at 10 μM: ××× (cell growth −40 > % < −60)
[16]; Homo sapiens
  GI50: 3 µM
[16]; [18]
  CC50: 49 µM
[16]
  TGI: 7 µM
  Growth percent at 10 μM: × (cell growth 0 > % > −20)
[17]; Homo sapiens
  GI50: 5 µM
[17]; [18]
  CC50: 63 µM
[17]
  TGI: 21 µM
  Growth percent at 10 μM: ++ (cell growth 40 > % < 60)
